{"source": "patent US6743413B1", "about": "“Suspension aerosol formulations” (3M Company, priority 1991, dated 2004)", "format_in_all_cases": "physicochemical", "key": {"[1]": {"experiment": "Visual assessment of suspension formulations by time lapse photography 10 and 30 seconds after agitation", "parameters": "key: + = visually acceptable formulation; − = visually unacceptable formulation; ? = border line acceptable formulation", "procedure": "(§1) For each of the micronized drug substances A-G set forth below, formulations were prepared at drug concentrations of 0.017 percent, 0.039 percent, 0.083 percent, 0.41 percent, and 1.6 percent by weight based on the total weight of the formulation (corresponding to 0.20 mg/mL, 0.50 mg/mL, 1.0 mg/mL, 5.0 mg/Ml, and 20 mg/mL, respectively). The formulations were prepared by dispersing micronized drug in HFC 134a in a sealed 15 mL clear PET vial using ultrasonic energy.\nUsing time lapse photography 10 and 30 seconds after agitation the formulations were assessed as follows: […]\nThe formulations were photographed using time lapse photography at 10 and 30 seconds post agitation and were assessed as follows: […]"}, "[2]": {"experiment": "Suspension aerosol particle size analysis (Malvern Mastersizer, laser diffraction)", "conditions": "Example 7: 0.02 percent by weight in HFC 134a", "procedure": "The particle size distribution of drug in the aerosol suspension is assayed by Malvern Mastersizer™ Particle Size Analyser using a suspending medium of 0.01 percent sorbitan trioleate in heptane.\nUsing a primed connector, shots are fired via an injection adapter into the Malvern sample cell containing the suspending medium. When a suitable level of obscuration (in the range 8.5-9) is achieved, analysis by laser diffraction is then performed.\nThe results below show the percentage by weight of particles having particle size below 10.7 μm, below 5.07 μm, and below 1.95 μm. The “Initial” entries represent the average of three independent determinations, and the “25° C.”, “CYC”, and “HHC” entries represent a single determination after one month under the indicated storage conditions."}, "[3]": {"experiment": "Twin stage impinger deposition of emitted dose", "conditions": "Example 7: 0.02 percent by weight in HFC 134a", "source_text": "Glass impinger apparatus A (BP198 Appendix XV11C) is used. To determine the deposition of the emitted dose, the apparatus is assembled as described. The oral adapter is attached to the throatpiece of the apparatus, and a suitable pump is connected to the outlet of the apparatus. The air flow through the apparatus is 60 ±5 liters per minute measured at the inlet of the throat. […] Ten shots are then fired via the adapter into the apparatus from the canister.\nThe apparatus is then dismantled and each stage washed with the appropriate amount of methanol. The washings are assayed by HPLC to give the content of the drug found at each stage and also the material balance."}, "[4]": {"experiment": "Visual observation of suspension aerosol formulations (dispersion, flocculation, settling, creaming, suitability for metered dose inhaler)", "conditions": "Example 3: 1:1 (W/W) HFC 134a/HFC 227 versus corresponding formulations in HFC 134a alone", "procedure": "as §1\nFor each propellant mix the range of drug concentrations used in Example 1 was used.\nBDP formulations were prepared at 0.070 percent by weight (1.0 mg/mL) in HFC 227 and at 0.38 percent by weight (5.0 mg/mL) in a 1:1 mixture of HFC 227 and HFC 134a.\nFormulations of salmeterol free base at 0.02 percent by weight and 0.05 percent by weight were prepared in HFC 134a and in HFC 227 by placing the drug and 5 mL of glass beads into a 15 mL glass vial, crimping on a continuous valve, and adding the appropriate amount of propellant. The formulations were shaken on a paint shaker for 10 min in order to disperse the drug.\nThe vial was then shaken on a paint shaker, chilled, and the contents transferred to 10 mL vials fitted with the metered dose valve. […] Valve delivery was measured through the life of the formulations."}, "[5]": {"experiment": "Visual assessment of suspension formulations by time lapse photography 10 and 30 seconds after agitation", "parameters": "key: + = visually acceptable formulation; − = visually unacceptable formulation; ? = border line acceptable formulation", "conditions": "10 and 30 seconds post agitation"}, "[6]": {"conditions": "1 Month CYC (cycled between 15° C. and 37° C.)"}, "[7]": {"conditions": "1 Month HHC (approximately 40° C. and 85 percent relative humidity)"}, "[8]": {"conditions": "Initial (average of three determinations)"}}, "note": "Several values for one entry are separate records, joined by “and”; a condition that tells them apart may be missing. Equal entries are not always repeated."}
{"compound": "COc1ccc(C[C@@H](C)NC[C@H](O)c2ccc(O)c(NC=O)c2)cc1.COc1ccc(C[C@@H](C)NC[C@H](O)c2ccc(O)c(NC=O)c2)cc1.O=C(O)/C=C/C(=O)O", "note": "[Formoterol fumarate]", "values": [{"measurement": "visual assessment of formulation", "setting": "[1]; Example 1: drug concentration 0.017 % in HFC 134a alone", "value": "+"}, {"measurement": "visual assessment of formulation", "setting": "[1]; Example 1: drug concentration 0.039 % in HFC 134a alone", "value": "?"}, {"measurement": "visual assessment of formulation", "setting": "[1]; Example 1: drug concentration 0.083 % in HFC 134a alone", "value": "?"}, {"measurement": "visual assessment of formulation", "setting": "[1]; Example 1: drug concentration 0.41 % in HFC 134a alone", "value": "−"}, {"measurement": "visual assessment of formulation", "setting": "[1]; Example 1: drug concentration 1.63 % in HFC 134a alone", "value": "+"}, {"measurement": "particles with particle size <1.95 μm", "setting": "[2]; [6]", "value": "36.1 Percent by weight and 32.5 Percent by weight"}, {"measurement": "particles with particle size <5.07 μm", "setting": "[2]; [6]", "value": "92.9 Percent by weight and 92.5 Percent by weight"}, {"measurement": "particles with particle size <10.7 μm", "setting": "[2]; [6]", "value": 99.8, "unit": "Percent by weight"}, {"measurement": "particles with particle size <1.95 μm", "setting": "[2]; [7]", "value": "33.5 Percent by weight and 34.9 Percent by weight"}, {"measurement": "particles with particle size <5.07 μm", "setting": "[2]; [7]", "value": "93.1 Percent by weight and 92.4 Percent by weight"}, {"measurement": "particles with particle size <10.7 μm", "setting": "[2]; [7]", "value": "99.8 Percent by weight and 99.7 Percent by weight"}, {"measurement": "particles with particle size <1.95 μm", "setting": "[2]; 1 Month stored at 25° C.", "value": "36.3 Percent by weight and 31.7 Percent by weight"}, {"measurement": "particles with particle size <5.07 μm", "setting": "[2]; 1 Month stored at 25° C.", "value": "93.6 Percent by weight and 94.8 Percent by weight"}, {"measurement": "particles with particle size <10.7 μm", "setting": "[2]; 1 Month stored at 25° C.", "value": "99.8 Percent by weight and 99.9 Percent by weight"}, {"measurement": "particles with particle size <1.95 μm", "setting": "[2]; [8]", "value": "32.2 Percent by weight and 30.5 Percent by weight"}, {"measurement": "particles with particle size <5.07 μm", "setting": "[2]; [8]", "value": "93.4 Percent by weight and 92.6 Percent by weight"}, {"measurement": "particles with particle size <10.7 μm", "setting": "[2]; [8]", "value": "99.6 Percent by weight and 98.0 Percent by weight"}, {"measurement": "% Stem/Adapter", "setting": "[3]; 1 Month (25° C.)", "value": "52.0% and 52.5%"}, {"measurement": "%Stage 1", "setting": "[3]; 1 Month (25° C.)", "value": "16.7% and 23.9%"}, {"measurement": "%Stage 2", "setting": "[3]; 1 Month (25° C.)", "value": "31.3% and 23.6%"}, {"measurement": "% Stem/Adapter", "setting": "[3]; 1 Month (CYC)", "value": "16.8% and 24.6%"}, {"measurement": "%Stage 1", "setting": "[3]; 1 Month (CYC)", "value": "53.6% and 47.6%"}, {"measurement": "%Stage 2", "setting": "[3]; 1 Month (CYC)", "value": "29.7% and 27.8%"}, {"measurement": "%Stage 1", "setting": "[3]; 1 Month (HHC)", "value": "37.0% and 60.4%"}, {"measurement": "%Stage 2", "setting": "[3]; 1 Month (HHC)", "value": "29.0% and 24.3%"}, {"measurement": "% Stem/Adapter", "setting": "[3]; Initial", "value": "26.0% and 24.7% and 28.5%"}, {"measurement": "%Stage 1", "setting": "[3]; Initial", "value": "37.5% and 35.3% and 36.7%"}, {"measurement": "%Stage 2", "setting": "[3]; Initial", "value": "36.5% and 40.0% and 34.8%"}, {"measurement": "flocculation and sedimentation rate", "setting": "[4]", "value": "reduced flocculation and a slower sedimentation rate"}, {"measurement": "Assessment (visual)", "setting": "[5]; Example 3: drug concentration 0.015 % in 1:1 HFC 134a/HFC 227", "value": "+"}, {"measurement": "Assessment (visual)", "setting": "[5]; Example 3: drug concentration 0.038 % in 1:1 HFC 134a/HFC 227", "value": "+"}, {"measurement": "Assessment (visual)", "setting": "[5]; Example 3: drug concentration 0.076 % in 1:1 HFC 134a/HFC 227", "value": "?"}, {"measurement": "Assessment (visual)", "setting": "[5]; Example 3: drug concentration 0.38 % in 1:1 HFC 134a/HFC 227", "value": "?"}, {"measurement": "Assessment (visual)", "setting": "[5]; Example 3: drug concentration 1.5 % in 1:1 HFC 134a/HFC 227", "value": "+"}]}
